From US7420090B2 (priority 2002, dated 2008)

Test system: Pyrenophora teres
Format: in vivo
Conditions: 200 ppm

## CCC(Oc1cc(Cl)cc(Cl)c1)C(=O)NC(C)(C)C#CCCCOC (stereo not shown) [4(57), 2-(3,5-dichlorophenoxy)-N-(1-methoxy-6-methylhept-4-yn-6-yl) butyramide]
  control of fungal infection (preventive fungicidal activity): more than 60%
